As a reminder, the IC50 is the concentration that inhibits the measured activity by half. Higher therefore signals weaker potency.

This is an account of results in BindingDB's records for doi:10.1021/jm040794i (2005).

The target in experiment [1] is Somatostatin receptor type 5 (Homo sapiens, UniProt P35346). The experiment can be described thus: In vitro inhibition of [125I][Leu8,D-Trp22,Tyr25] somatostatin 28 binding to human somatostatin receptor type 5 expressed in CHO-K1 cells; (n=3).
The target of experiment [2] is Somatostatin receptor type 1 (Homo sapiens, UniProt P30872). The experiment can be described thus: In vitro inhibition of [125I][Leu8,D-Trp22,Tyr25] somatostatin 28 binding to human somatostatin receptor type 1 expressed in CHO-K1 cells; (n=3).

SMILES strings stand for the structures.

Sequence of Somatostatin receptor type 1 (P30872 whole entry): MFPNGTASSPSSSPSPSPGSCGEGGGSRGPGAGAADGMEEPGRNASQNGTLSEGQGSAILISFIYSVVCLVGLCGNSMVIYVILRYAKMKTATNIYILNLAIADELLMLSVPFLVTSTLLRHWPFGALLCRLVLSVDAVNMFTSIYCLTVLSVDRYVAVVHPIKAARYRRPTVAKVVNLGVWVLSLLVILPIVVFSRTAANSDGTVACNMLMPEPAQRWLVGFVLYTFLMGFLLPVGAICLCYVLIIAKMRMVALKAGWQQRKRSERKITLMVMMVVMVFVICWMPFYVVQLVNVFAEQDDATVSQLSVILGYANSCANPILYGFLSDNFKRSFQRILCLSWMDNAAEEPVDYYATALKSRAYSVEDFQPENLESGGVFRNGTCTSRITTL
Sequence of Somatostatin receptor type 5 (P35346 whole entry): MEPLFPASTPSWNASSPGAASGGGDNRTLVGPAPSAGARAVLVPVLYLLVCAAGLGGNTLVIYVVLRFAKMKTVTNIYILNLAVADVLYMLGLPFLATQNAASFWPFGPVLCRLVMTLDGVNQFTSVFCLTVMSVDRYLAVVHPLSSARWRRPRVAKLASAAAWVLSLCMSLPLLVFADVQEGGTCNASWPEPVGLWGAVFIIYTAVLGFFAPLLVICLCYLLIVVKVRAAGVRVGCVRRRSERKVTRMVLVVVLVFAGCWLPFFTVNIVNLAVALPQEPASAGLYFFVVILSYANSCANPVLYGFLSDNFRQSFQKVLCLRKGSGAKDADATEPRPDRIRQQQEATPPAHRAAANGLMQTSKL

In turn, `C[C@@H](O)[C@H](NC(=O)[C@@H]1CSSC[C@H](NC(=O)[C@@H](Cc2ccccc2)NC(=O)CN2CCN(CC(=O)O)CCN(CC(=O)O)CCN(CC(=O)O)CC2)C(=O)N[C@@H](Cc2ccc(O)cc2)C(=O)N[C@H](Cc2c[nH]c3ccccc23)C(=O)N[C@@H](CCCCN)C(=O)N[C@@H]([C@@H](C)O)C(=O)N1)C(=O)O` yielded an IC50 in experiment [1] of 377 nM.

Consider `C[C@@H](O)[C@H](NC(=O)[C@@H]1CSSC[C@H](NC(=O)[C@H](N)Cc2ccccc2)C(=O)N[C@@H](Cc2ccc(O)c(I)c2)C(=O)N[C@H](Cc2c[nH]c3ccccc23)C(=O)N[C@@H](CCCCN)C(=O)N[C@@H]([C@@H](C)O)C(=O)N1)C(=O)O` [4-[(4R,7S,10S,13R,16S)-19-(2-azaniumyl-3-phenylpropanamido)-4-{[(1S)-1-carboxy-2-hydroxypropyl]carbamoyl}-16-[(4-hydroxy-3-iodophenyl)methyl]-7-(1-hydroxyethyl)-13-(1H-indol-3-ylmethyl)-6,9,12,15,18-pentaoxo-1,2-dithia-5,8,11,14,17-pentaazacycloicosan-10-yl]butan-1-aminium], for which the IC50 in experiment [2] was > 10 µM.
